Assay results from ChEMBL document CHEMBL4732075, “PROTACs suppression of GSK-3β, a crucial kinase in neurodegenerative diseases” (Eur J Med Chem, 2021).
Values belong to the compound of their own block, whether it stands above or below them. The source made the active and inactive calls. The calls are words filed in the database; no cut-off is given here.

Columns and labels:
[1] = biological target: T1, Protein cereblon/Glycogen synthase kinase-3 beta (Rattus norvegicus) (UniProt P18266+Q56AP7); assay: Protac activity at CRBN/GSK3beta in rat PC12 cells assessed as GSK3beta degradation by measuring GSK3beta protein level at 10 uM after 10 hrs by Western blotting analysis; assay type: cell-based; conditions: PC-12
[2] = biological target: T2, Glycogen synthase kinase-3 beta (Homo sapiens, UniProt P49841); assay: Inhibition of N-terminal His6-tagged recombinant human GSK3beta H350L mutant expressed in baculovirus infected Sf21 cells using GSM as substrate incubated for 30 mins in presence of ATP by Kinase-Glo luminescent assay
Target sequence in this assay (P49841 whole entry): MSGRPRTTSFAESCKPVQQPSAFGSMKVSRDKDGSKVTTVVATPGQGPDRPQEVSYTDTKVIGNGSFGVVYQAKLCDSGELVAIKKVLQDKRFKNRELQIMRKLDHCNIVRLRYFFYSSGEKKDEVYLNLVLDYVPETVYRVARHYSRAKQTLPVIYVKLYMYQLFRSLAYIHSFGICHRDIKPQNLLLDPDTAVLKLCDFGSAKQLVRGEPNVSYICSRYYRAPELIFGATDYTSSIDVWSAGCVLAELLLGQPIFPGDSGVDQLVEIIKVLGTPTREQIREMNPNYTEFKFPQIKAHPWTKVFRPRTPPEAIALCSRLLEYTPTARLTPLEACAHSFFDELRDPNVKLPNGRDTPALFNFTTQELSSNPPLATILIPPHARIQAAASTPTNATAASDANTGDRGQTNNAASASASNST

[3] = biological target: T1, Protein cereblon/Glycogen synthase kinase-3 beta (Rattus norvegicus); assay: Protac activity at CRBN/GSK3beta in rat PC12 cells assessed as GSK3beta degradation by measuring GSK3beta protein level at 20 uM after 10 hrs by Western blotting analysis (reference value: 100 %); assay type: cell-based; conditions: PC-12
[4] = biological target: T1, Protein cereblon/Glycogen synthase kinase-3 beta (Rattus norvegicus); assay: Protac activity at CRBN/GSK3beta in rat PC12 cells assessed as GSK3beta degradation by measuring GSK3beta protein level at […] preincubated for 2 hrs with GSK3beta inhibitor, G1 followed by compound addition and measured after 8 hrs by Western blotting analysis (reference value: 100 %); assay type: cell-based; parameters: scale not given: the % may be the effect or the level left; conditions: PC-12, dose 8.3 µM
[5] = biological target: Dual specificity tyrosine-phosphorylation-regulated kinase 1A (Homo sapiens) (UniProt Q13627); assay: Inhibition of DYRK1alpha (unknown origin) at 300 nM relative to control
HT-22 = assay: Neuroprotective activity against glutamate-induced cell death in mouse HT22 cells at 5 uM preincubated for 10 hrs followed by glutamate challenge and measured after 24 hrs by fluorescence inverted microscopic analysis; assay type: functional, cell-based
[6] = biological target: Mitogen-activated protein kinase 1 (Homo sapiens) (UniProt P28482); assay: Inhibition of ERK2 (unknown origin) at 300 nM relative to control
BV-2 = assay: Anti-neuroinflammatory activity in mouse BV2 cells assessed as reduction in LPS-induced TNFalpha production at 5 uM pretreated for 5 hrs followed by LPS challenge and measured after 24 hrs by immunofluorescence confocal microscopic analysis; assay type: functional, cell-based; conditions: time 29.0 hrs
[7] = biological target: T1, Protein cereblon/Glycogen synthase kinase-3 beta (Rattus norvegicus); assay: Protac activity at CRBN/GSK3beta in rat PC12 cells assessed as GSK3beta degradation by measuring GSK3beta protein level at 2.8 uM after 10 hrs by Western blotting analysis (reference value: 100 %); assay type: cell-based; conditions: PC-12
[8] = biological target: Cyclin-dependent kinase 4 (Homo sapiens) (UniProt P11802); assay: Inhibition of CDK4 (unknown origin) at 300 nM relative to control
[9] = biological target: T1, Protein cereblon/Glycogen synthase kinase-3 beta (Rattus norvegicus); assay: Protac activity at CRBN/GSK3beta in rat PC12 cells assessed as GSK3beta degradation by measuring GSK3beta protein level at […] preincubated for 2 hrs with proteasome inhibitor, MG132 followed by compound addition and measured after 8 hrs by Western blotting analysis (reference value: 100 %); assay type: cell-based; parameters: scale not given: the % may be the effect or the level left; conditions: PC-12, dose 8.3 µM
[10] = biological target: Cyclin-dependent kinase 1 (Homo sapiens) (UniProt P06493); assay: Inhibition of CDK1 (unknown origin) at 300 nM relative to control
[11] = biological target: Mitogen-activated protein kinase 3 (Homo sapiens) (UniProt P27361); assay: Inhibition of ERK1 (unknown origin) at 300 nM relative to control
[12] = biological target: Mitogen-activated protein kinase 14 (Homo sapiens) (UniProt Q16539); assay: Inhibition of p38alpha (unknown origin) at 300 nM relative to control
[13] = biological target: Dual specificity tyrosine-phosphorylation-regulated kinase 1B (Homo sapiens) (UniProt Q9Y463); assay: Inhibition of DYRK1beta (unknown origin) at 300 nM relative to control
[14] = biological target: T1, Protein cereblon/Glycogen synthase kinase-3 beta (Rattus norvegicus); assay: Protac activity at CRBN/GSK3beta in rat PC12 cells assessed as GSK3beta degradation by measuring GSK3beta protein level at […] after 10 hrs by Western blotting analysis (reference value: 100 %); assay type: cell-based; conditions: PC-12, dose 8.3 µM
[15] = biological target: T1, Protein cereblon/Glycogen synthase kinase-3 beta (Rattus norvegicus); assay: Protac activity at CRBN/GSK3beta in rat PC12 cells assessed as GSK3beta degradation by measuring GSK3beta protein level at 25 uM after 10 hrs by Western blotting analysis (reference value: 100 %); assay type: cell-based; conditions: PC-12
[16] = biological target: T1, Protein cereblon/Glycogen synthase kinase-3 beta (Rattus norvegicus); assay: Protac activity at CRBN/GSK3beta in rat PC12 cells assessed as GSK3beta degradation by measuring reduction in GSK3beta protein level after 10 hrs by Western blotting analysis; assay type: cell-based; conditions: PC-12, dose 2.8-25 µM
[17] = biological target: T3, Mitogen-activated protein kinase 13 (Homo sapiens) (UniProt O15264); assay: Inhibition of p38delta (unknown origin) at 300 nM relative to control
T3 sequence (whole entry): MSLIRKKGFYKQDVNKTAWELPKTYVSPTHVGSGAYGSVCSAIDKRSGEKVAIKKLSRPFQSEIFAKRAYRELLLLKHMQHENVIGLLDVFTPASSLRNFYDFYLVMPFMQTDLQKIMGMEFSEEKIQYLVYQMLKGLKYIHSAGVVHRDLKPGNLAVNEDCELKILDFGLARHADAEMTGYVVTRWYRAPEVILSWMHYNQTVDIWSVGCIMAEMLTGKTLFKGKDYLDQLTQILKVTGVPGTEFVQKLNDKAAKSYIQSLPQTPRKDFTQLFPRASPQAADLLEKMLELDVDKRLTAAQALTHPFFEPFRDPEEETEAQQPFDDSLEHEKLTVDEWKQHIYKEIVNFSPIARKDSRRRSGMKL

[18] = biological target: Cyclin-dependent kinase 9 (Homo sapiens) (UniProt P50750); assay: Inhibition of CDK9 (unknown origin) at 300 nM relative to control
[19] = biological target: Mitogen-activated protein kinase 10 (Homo sapiens) (UniProt P53779); assay: Inhibition of JNK3 (unknown origin) at 300 nM relative to control
[20] = biological target: Mitogen-activated protein kinase 11 (Homo sapiens) (UniProt Q15759); assay: Inhibition of p38beta (unknown origin) at 300 nM relative to control
[21] = biological target: Mitogen-activated protein kinase 9 (Homo sapiens) (UniProt P45984); assay: Inhibition of JNK2 (unknown origin) at 300 nM relative to control
[22] = biological target: T2, Glycogen synthase kinase-3 beta; assay: Inhibition of GSK3beta (unknown origin) at 300 nM relative to control
Target sequence in this assay (P49841 whole entry, looked up): as the sequence (P49841 whole entry) above

[23] = biological target: Cyclin-dependent kinase 7 (Homo sapiens) (UniProt P50613); assay: Inhibition of CDK7 (unknown origin) at 300 nM relative to control
[24] = biological target: Glycogen synthase kinase-3 alpha (Homo sapiens) (UniProt P49840); assay: Inhibition of GSK3alpha (unknown origin) at 300 nM relative to control
[25] = biological target: T1, Protein cereblon/Glycogen synthase kinase-3 beta (Rattus norvegicus); assay: Protac activity at CRBN/GSK3beta in rat PC12 cells assessed as GSK3beta degradation by measuring GSK3beta protein level at […] preincubated for 2 hrs with […] ligand, pomalidomide followed by compound addition and measured after 8 hrs by Western blotting analysis (reference value: 100 %); assay type: cell-based; conditions: PC-12, dose 8.3 µM

T1 sequence (P18266 whole entry, looked up): as the sequence (P49841 whole entry) above, with V240M, T390P, T392A, A400T, T402A counted along it
T1 sequence (Q56AP7 whole entry, looked up): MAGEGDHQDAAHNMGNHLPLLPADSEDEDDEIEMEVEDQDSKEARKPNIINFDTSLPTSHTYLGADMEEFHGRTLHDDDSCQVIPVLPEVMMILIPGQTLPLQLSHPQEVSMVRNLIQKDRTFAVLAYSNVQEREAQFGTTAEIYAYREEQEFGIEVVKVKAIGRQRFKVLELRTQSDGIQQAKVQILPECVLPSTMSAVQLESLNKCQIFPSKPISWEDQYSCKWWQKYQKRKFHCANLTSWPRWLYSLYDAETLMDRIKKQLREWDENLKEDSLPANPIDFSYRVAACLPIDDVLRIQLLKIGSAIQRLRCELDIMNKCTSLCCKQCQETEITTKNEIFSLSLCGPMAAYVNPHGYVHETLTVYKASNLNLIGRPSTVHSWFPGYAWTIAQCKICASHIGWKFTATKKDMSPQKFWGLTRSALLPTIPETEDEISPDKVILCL
Sequence of Cyclin-dependent kinase 7 (Homo sapiens) (P50613 whole entry): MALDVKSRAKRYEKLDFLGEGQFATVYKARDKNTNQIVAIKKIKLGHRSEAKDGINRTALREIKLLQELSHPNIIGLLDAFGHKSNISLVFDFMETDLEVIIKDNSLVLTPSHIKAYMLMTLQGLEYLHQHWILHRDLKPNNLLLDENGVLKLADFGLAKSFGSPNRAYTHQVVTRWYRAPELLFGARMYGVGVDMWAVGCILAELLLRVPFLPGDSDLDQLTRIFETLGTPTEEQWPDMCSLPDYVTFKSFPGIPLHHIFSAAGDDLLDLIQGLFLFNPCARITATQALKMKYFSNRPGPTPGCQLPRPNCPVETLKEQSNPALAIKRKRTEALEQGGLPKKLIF
Sequence of Glycogen synthase kinase-3 alpha (Homo sapiens) (P49840 2-483 limits assumed): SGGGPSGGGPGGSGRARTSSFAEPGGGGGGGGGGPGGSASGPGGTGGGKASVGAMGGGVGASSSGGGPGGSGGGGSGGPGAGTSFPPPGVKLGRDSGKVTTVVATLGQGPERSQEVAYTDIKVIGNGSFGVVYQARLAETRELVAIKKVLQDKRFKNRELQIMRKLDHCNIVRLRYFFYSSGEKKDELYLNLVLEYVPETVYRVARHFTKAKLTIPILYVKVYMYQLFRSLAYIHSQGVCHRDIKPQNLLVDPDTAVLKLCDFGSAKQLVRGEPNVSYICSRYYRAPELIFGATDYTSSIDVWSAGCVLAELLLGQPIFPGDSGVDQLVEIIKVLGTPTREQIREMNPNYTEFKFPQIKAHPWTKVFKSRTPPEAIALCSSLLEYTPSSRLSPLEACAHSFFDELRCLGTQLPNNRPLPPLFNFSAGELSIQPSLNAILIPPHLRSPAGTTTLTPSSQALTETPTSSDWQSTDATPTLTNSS
Sequence of Mitogen-activated protein kinase 1 (Homo sapiens) (P28482 whole entry): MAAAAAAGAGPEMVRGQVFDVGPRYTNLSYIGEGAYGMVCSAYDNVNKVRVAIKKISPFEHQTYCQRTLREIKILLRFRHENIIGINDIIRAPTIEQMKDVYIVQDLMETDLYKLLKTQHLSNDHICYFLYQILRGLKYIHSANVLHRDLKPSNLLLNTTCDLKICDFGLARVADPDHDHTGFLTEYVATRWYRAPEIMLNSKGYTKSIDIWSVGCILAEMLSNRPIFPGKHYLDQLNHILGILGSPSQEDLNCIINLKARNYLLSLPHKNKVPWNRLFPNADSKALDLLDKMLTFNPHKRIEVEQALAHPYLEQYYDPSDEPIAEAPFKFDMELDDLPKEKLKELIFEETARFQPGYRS
Sequence of Mitogen-activated protein kinase 3 (Homo sapiens) (P27361 whole entry): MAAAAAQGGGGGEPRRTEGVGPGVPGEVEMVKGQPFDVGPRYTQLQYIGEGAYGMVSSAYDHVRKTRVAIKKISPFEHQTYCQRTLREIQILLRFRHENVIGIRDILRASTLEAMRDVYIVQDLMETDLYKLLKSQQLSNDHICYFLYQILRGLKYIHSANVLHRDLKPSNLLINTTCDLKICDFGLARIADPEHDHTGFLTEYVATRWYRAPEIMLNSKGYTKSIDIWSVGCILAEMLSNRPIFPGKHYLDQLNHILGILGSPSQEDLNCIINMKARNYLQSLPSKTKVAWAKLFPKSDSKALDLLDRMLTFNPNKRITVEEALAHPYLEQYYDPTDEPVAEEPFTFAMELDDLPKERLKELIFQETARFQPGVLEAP
Sequence of Mitogen-activated protein kinase 9 (Homo sapiens) (P45984 whole entry, looked up): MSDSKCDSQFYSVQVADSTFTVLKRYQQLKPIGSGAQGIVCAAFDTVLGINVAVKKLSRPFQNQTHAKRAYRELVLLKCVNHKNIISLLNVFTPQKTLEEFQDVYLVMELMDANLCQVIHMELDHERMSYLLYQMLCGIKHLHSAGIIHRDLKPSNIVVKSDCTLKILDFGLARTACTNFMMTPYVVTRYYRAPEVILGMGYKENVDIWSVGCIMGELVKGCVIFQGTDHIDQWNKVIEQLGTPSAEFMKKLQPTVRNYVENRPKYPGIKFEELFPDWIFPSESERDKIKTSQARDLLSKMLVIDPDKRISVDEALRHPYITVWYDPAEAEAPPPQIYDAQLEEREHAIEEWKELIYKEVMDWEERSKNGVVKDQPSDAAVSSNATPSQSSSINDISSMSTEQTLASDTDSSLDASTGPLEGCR
Sequence of Cyclin-dependent kinase 1 (Homo sapiens) (P06493 whole entry, looked up): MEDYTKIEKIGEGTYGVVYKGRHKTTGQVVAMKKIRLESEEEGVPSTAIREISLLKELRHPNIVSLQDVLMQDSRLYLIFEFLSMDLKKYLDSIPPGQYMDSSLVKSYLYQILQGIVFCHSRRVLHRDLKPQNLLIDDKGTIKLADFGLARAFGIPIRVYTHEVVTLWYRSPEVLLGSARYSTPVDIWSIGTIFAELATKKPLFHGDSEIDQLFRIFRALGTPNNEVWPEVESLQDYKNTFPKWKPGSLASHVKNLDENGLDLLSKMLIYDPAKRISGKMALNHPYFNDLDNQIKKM
Sequence of Mitogen-activated protein kinase 11 (Homo sapiens) (Q15759 whole entry): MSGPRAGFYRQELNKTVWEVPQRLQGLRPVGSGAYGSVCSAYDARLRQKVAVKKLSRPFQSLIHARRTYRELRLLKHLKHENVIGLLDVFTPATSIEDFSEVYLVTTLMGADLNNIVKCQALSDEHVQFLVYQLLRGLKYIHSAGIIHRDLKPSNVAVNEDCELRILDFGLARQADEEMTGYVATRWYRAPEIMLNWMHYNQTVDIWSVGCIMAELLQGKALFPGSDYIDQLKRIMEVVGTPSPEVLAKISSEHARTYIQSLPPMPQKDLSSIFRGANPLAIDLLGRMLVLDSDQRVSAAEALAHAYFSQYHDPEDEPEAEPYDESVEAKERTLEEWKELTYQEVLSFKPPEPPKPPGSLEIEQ
Sequence of Cyclin-dependent kinase 4 (Homo sapiens) (P11802 whole entry): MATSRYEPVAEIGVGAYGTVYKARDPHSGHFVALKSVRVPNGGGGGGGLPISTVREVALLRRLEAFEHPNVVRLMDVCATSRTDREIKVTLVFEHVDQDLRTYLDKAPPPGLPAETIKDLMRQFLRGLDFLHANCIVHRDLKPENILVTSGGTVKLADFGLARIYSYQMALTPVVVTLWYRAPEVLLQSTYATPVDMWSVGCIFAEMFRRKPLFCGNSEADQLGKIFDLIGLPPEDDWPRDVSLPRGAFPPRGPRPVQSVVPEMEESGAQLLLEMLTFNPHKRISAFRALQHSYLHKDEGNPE
Sequence of Mitogen-activated protein kinase 10 (Homo sapiens) (P53779 whole entry): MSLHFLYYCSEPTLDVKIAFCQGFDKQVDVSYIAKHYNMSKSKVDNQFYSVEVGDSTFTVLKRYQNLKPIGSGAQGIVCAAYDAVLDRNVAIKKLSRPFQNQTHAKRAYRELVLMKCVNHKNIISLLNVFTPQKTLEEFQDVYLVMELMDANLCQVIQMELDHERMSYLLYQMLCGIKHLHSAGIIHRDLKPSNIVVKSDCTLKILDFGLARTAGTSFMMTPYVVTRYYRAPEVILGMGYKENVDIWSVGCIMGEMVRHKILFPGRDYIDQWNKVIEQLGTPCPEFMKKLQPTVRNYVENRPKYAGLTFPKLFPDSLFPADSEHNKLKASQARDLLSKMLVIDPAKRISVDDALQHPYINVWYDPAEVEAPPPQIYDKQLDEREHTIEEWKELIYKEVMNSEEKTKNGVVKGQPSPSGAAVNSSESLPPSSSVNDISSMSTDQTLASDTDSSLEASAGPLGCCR
Sequence of Cyclin-dependent kinase 9 (Homo sapiens) (P50750 whole entry): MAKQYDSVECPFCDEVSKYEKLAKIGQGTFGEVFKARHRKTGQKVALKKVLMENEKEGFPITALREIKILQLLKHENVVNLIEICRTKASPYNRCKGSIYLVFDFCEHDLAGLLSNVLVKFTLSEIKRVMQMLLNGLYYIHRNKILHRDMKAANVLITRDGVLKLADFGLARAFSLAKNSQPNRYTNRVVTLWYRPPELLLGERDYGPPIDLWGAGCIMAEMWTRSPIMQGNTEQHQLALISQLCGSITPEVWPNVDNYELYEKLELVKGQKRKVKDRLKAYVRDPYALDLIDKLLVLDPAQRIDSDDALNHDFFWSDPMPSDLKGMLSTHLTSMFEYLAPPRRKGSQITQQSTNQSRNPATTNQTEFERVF

Structure (SMILES): CNC(=O)c1sc(-c2ccnc(NC(=O)C3CC3)c2)nc1OCCCC#Cc1ccc2c(c1)C(=O)N(C1CCC(=O)NC1=O)C2=O (stereo not drawn)
GSK3beta protein level remaining [1]: 99.2%
IC50 [2]: 0.0791 µM

Structure (SMILES): NC(=O)c1sc(-c2ccnc(NC(=O)C3CC3)c2)nc1O
GSK3beta protein level remaining [1]: 104%
Activity [3]: 111%

Structure (SMILES): CNC(=O)c1sc(-c2ccnc(NC(=O)C3CC3)c2)nc1OCCCCCCCCn1cc(COc2cccc3c2C(=O)N(C2CCC(=O)NC2=O)C3=O)nn1 (stereo not drawn)
Activity [4]: 102%
inhibition [5]: 40.4%
Activity (HT-22): Active
inhibition [6]: 5.84%
Activity (BV-2): Active
GSK3beta protein level remaining [1]: 25.2%
Activity [7]: 55.8%
inhibition [8]: 4.09%
Activity [9]: 96.6%
inhibition [10]: 4.01%
inhibition [11]: 6.79%
inhibition [12]: 5.63%
inhibition [13]: 19.6%
Activity [14]: 36.5%
Activity [15]: 16.7%
Activity [16]: Dose-dependent effect
inhibition [17]: 18.4%
inhibition [18]: 3.27%
inhibition [19]: 13.8%
inhibition [20]: 6.94%
inhibition [21]: 1.78%
inhibition [22]: 81.5%
inhibition [23]: 3.65%
inhibition [24]: 88.9%
IC50 [2]: 0.0831 µM
Activity [25]: 109%

Structure (SMILES): NC(=O)c1sc(-c2ccnc(NC(=O)C3CC3)c2)nc1OCCOCC#Cc1cccc2c1CN(C1CCC(=O)NC1=O)C2=O (stereo not drawn)
GSK3beta protein level remaining [1]: 86.9%
IC50 [2]: 0.0638 µM

Structure (SMILES): CNC(=O)c1sc(-c2ccnc(NC(=O)C3CC3)c2)nc1OCCOCC#Cc1ccc2c(c1)C(=O)N(C1CCC(=O)NC1=O)C2=O (stereo not drawn)
GSK3beta protein level remaining [1]: 68.8%
IC50 [2]: 0.0197 µM

GSK3beta protein level remaining [1]: 109%
Structure (SMILES): Nc1cccc2c1C(=O)N(C1CCC(=O)NC1=O)C2=O (stereo not drawn)

Structure (SMILES): CNC(=O)c1sc(-c2ccnc(NC(=O)C3CC3)c2)nc1OCCCCCCCCOc1cccc2c1C(=O)N(C1CCC(=O)NC1=O)C2=O (stereo not drawn)
GSK3beta protein level remaining [1]: 95.6%
IC50 [2]: 0.0238 µM

Structure (SMILES): CNC(=O)c1sc(-c2ccnc(NC(=O)C3CC3)c2)nc1OCCOCCOCCOCCOCCOc1cccc2c1C(=O)N(C1CCC(=O)NC1=O)C2=O (stereo not drawn)
GSK3beta protein level remaining [1]: 95.5%
IC50 [2]: 0.0693 µM

Structure (SMILES): CNC(=O)c1sc(-c2ccnc(NC(=O)C3CC3)c2)nc1OCCOCCOCCOCCn1cc(COc2cccc3c2C(=O)N(C2CCC(=O)NC2=O)C3=O)nn1 (stereo not drawn)
GSK3beta protein level remaining [1]: 54%
IC50 [2]: 0.0795 µM

Structure (SMILES): CNC(=O)c1sc(-c2ccnc(NC(=O)C3CC3)c2)nc1OCCOCCOCCOCCOc1cccc2c1C(=O)N(C1CCC(=O)NC1=O)C2=O (stereo not drawn)
GSK3beta protein level remaining [1]: 71.2%
IC50 [2]: 0.0732 µM

Structure (SMILES): CNC(=O)c1sc(-c2ccnc(NC(=O)C3CC3)c2)nc1OCCCCCCCCCCOc1cccc2c1C(=O)N(C1CCC(=O)NC1=O)C2=O (stereo not drawn)
GSK3beta protein level remaining [1]: 85.6%
IC50 [2]: 0.0704 µM

Structure (SMILES): COc1nc(-c2ccnc(NC(=O)C3CC3)c2)sc1C(=O)NCCCNC(=O)COc1cccc2c1C(=O)N(C1CCC(=O)NC1=O)C2=O (stereo not drawn)
IC50 [2]: 0.874 µM

Structure (SMILES): CNC(=O)c1sc(-c2ccnc(NC(=O)C3CC3)c2)nc1OCCCCCCOc1cccc2c1C(=O)N(C1CCC(=O)NC1=O)C2=O (stereo not drawn)
IC50 [2]: 0.0716 µM

Structure (SMILES): CNC(=O)c1sc(-c2ccnc(NC(=O)C3CC3)c2)nc1OCCCC#Cc1cccc2c1CN(C1CCC(=O)NC1=O)C2=O (stereo not drawn)
GSK3beta protein level remaining [1]: 85.1%
IC50 [2]: 0.295 µM

Structure (SMILES): NC(=O)c1sc(-c2ccnc(NC(=O)C3CC3)c2)nc1OCCC#Cc1ccc2c(c1)C(=O)N(C1CCC(=O)NC1=O)C2=O (stereo not drawn)
IC50 [2]: > 1 µM

Structure (SMILES): COc1nc(-c2ccnc(NC(=O)C3CC3)c2)sc1C(=O)NCCCCNC(=O)COc1cccc2c1C(=O)N(C1CCC(=O)NC1=O)C2=O (stereo not drawn)
IC50 [2]: 0.639 µM

Structure (SMILES): CNC(=O)c1sc(-c2ccnc(NC(=O)C3CC3)c2)nc1OCCOCC#Cc1cccc2c1CN(C1CCC(=O)NC1=O)C2=O (stereo not drawn)
GSK3beta protein level remaining [1]: 89.7%
IC50 [2]: 0.0492 µM

Structure (SMILES): CNC(=O)c1sc(-c2ccnc(NC(=O)C3CC3)c2)nc1OCCOCCOCCn1cc(COc2cccc3c2C(=O)N(C2CCC(=O)NC2=O)C3=O)nn1 (stereo not drawn)
GSK3beta protein level remaining [1]: 62.7%
IC50 [2]: 0.0469 µM

Structure (SMILES): NC(=O)c1sc(-c2ccnc(NC(=O)C3CC3)c2)nc1OCCOCC#Cc1ccc2c(c1)C(=O)N(C1CCC(=O)NC1=O)C2=O (stereo not drawn)
GSK3beta protein level remaining [1]: 75.3%
IC50 [2]: 0.0277 µM

Structure (SMILES): COc1nc(-c2ccnc(NC(=O)C3CC3)c2)sc1C(=O)NCCCCCCNC(=O)COc1cccc2c1C(=O)N(C1CCC(=O)NC1=O)C2=O (stereo not drawn)
IC50 [2]: 0.243 µM

Structure (SMILES): CNC(=O)c1sc(-c2ccnc(NC(=O)C3CC3)c2)nc1OCCC#Cc1cccc2c1CN(C1CCC(=O)NC1=O)C2=O (stereo not drawn)
IC50 [2]: > 1 µM

Structure (SMILES): CNC(=O)c1sc(-c2ccnc(NC(=O)C3CC3)c2)nc1OCCCCCCCCCCCCOc1cccc2c1C(=O)N(C1CCC(=O)NC1=O)C2=O (stereo not drawn)
GSK3beta protein level remaining [1]: 58.1%
IC50 [2]: 0.098 µM

Structure (SMILES): CNC(=O)c1sc(-c2ccnc(NC(=O)C3CC3)c2)nc1OCCOCCOCCOc1cccc2c1C(=O)N(C1CCC(=O)NC1=O)C2=O (stereo not drawn)
GSK3beta protein level remaining [1]: 92.8%
IC50 [2]: 0.105 µM
